The subject of one experiment is SMN2 Protein. The experiment in a line: SMN Protein Assay (MSD). The experiment is classed as cell-based, human. As to conditions: SMA patient fibroblasts, 48 hours, 0.6 nM to 2.5 µM. In outline: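 SMA patient fibroblasts at 7,000 cells/well treated 48 h with compound from 0.6 nM to 2.5 µM, then lysed. SMN protein in lysate quantified by Mesoscale Discovery immunoassay against an SMN standard curve (19.5 pg/ml–1 µg/ml), giving absolute amounts.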

For experiment [1], the system named is SMN2 Splicing D7 (SMN Δ7 transcript). The experiment in a line: SMN Quantitative Splicing Assay (qPCR). As to conditions: Homo sapiens, Fibroblast, 24 h, SMA patient fibroblasts (GM03813), 2.5 µM to 0.6 nM. The experiment is classed as cell-based, human. On the procedure:
Spinal muscular atrophy (SMA) patient fibroblasts (GM03813, Coriell) were plated in 96-well plates at 50,000 cells/well. […] Treated cells were lysed and cDNA synthesized using the Fast Advanced Cells-to-Ct kit (Thermofisher A35378) according to the manufacturer’s instructions. 2 µL of each cDNA were used in qPCR reactions. […] Reactions were run in a Quant Studio 6 qPCR instrument with default settings.

Each structure is given as a SMILES string.

A word on the EC50: it is the concentration needed to bring the measured effect to its halfway point. Low values mean a more potent agent, high ones a less potent agent. A word on the IC50: it is the concentration needed to halve the response being measured. With `CN(c1cnc(-c2cc3ccn(C)c(=O)c3cc2O)nn1)[C@H]1C[C@@H]2CC[C@@](C)(N2)[C@H]1F` [Compound 171], the EC50 with SMN2 Protein was 0.01 to 15 nM. This molecule had an IC50 in experiment [1] of 0.01 to 15 nM.

Turning to `CN(c1cnc(-c2cc3ccn(C)c(=O)c3cc2O)nn1)[C@@H]1CC2CC[C@](C)(N2)[C@@H]1F` [Compound 172], the EC50 with SMN2 Protein was in the range of 0.01 to 15 nM. This molecule also registered an IC50 in experiment [1] of 0.01 to 15 nM.

`CN(c1cnc(-c2cc3ccn(C)c(=O)c3cc2O)nn1)[C@H]1C[C@]2(C)CCC(N2)[C@H]1F` [Compound 173] displayed an EC50 in the experiment with SMN2 Protein of 16 to 50 nM. Besides, in experiment [1], the IC50 was 16 to 50 nM.

Turning to `CN(c1cnc(-c2cc3ccn(C)c(=O)c3cc2O)nn1)[C@@H]1C[C@@]2(C)CC[C@H](N2)[C@@H]1F` [Compound 174], the EC50 with SMN2 Protein was 0.01 to 15 nM. Besides, the IC50 in experiment [1] lay within 0.01 to 15 nM.

In the experiment with SMN2 Protein, `[2H]C([2H])([2H])N(c1cnc(-c2cc3ncn(C([2H])([2H])[2H])c(=O)c3cc2O)nn1)[C@H]1C[C@@H]2CCC(N2)[C@H]1F` [Compound 175] had a half-maximal effective concentration (EC50) of 0.01 to 15 nM. In addition, the IC50 in experiment [1] lay within 0.01 to 15 nM.

In turn, `[2H]C([2H])([2H])N(c1cnc(-c2cc3ncn(C([2H])([2H])[2H])c(=O)c3cc2O)nn1)[C@@H]1CC2CC[C@H](N2)[C@@H]1F` [Compound 176] returned an EC50 with SMN2 Protein of 0.01 to 15 nM. In experiment [1], this molecule had an IC50 of 16 to 50 nM.

In the case of `[2H]C([2H])([2H])n1cnc2cc(-c3ncc(N(C)[C@H]4C[C@@H]5CCC(N5)[C@H]4F)nn3)c(O)cc2c1=O` [Compound 177], the EC50 in the experiment on SMN2 Protein lay within 0.01 to 15 nM. In experiment [1], the IC50 fell in the range of 0.01 to 15 nM.

`[2H]C([2H])([2H])n1cnc2cc(-c3ncc(N(C)[C@@H]4CC5CC[C@H](N5)[C@@H]4F)nn3)c(O)cc2c1=O` [Compound 178]: in the experiment with SMN2 Protein, the 50% effective concentration (EC50) lay in the range of 0.01 to 15 nM. Moreover, the IC50 in experiment [1] lay in the range of 0.01 to 15 nM.

Regarding `[2H]C([2H])([2H])n1ncc2cc(-c3ncc(N(C)[C@H]4C[C@@H]5CCC(N5)[C@H]4F)nn3)c(O)cc2c1=O` [Compound 181], the EC50 in the experiment on SMN2 Protein lay within 0.01 to 15 nM. Also, the IC50 in experiment [1] fell in the range of 0.01 to 15 nM.

Turning to `[2H]C([2H])([2H])n1ncc2cc(-c3ncc(N(C)[C@@H]4CC5CC[C@H](N5)[C@@H]4F)nn3)c(O)cc2c1=O` [Compound 182], the EC50 in the experiment with SMN2 Protein fell in the range of 0.01 to 15 nM. Further, the 50% inhibitory concentration (IC50) in experiment [1] was 0.01 to 15 nM.

For `CN(c1cnc(-c2cc3cnn(C)c(=O)c3cc2O)nn1)[C@H]1C[C@@H]2CC[C@@](C)(N2)[C@H]1F` [Compound 183], in the experiment with SMN2 Protein, the EC50 lay within 0.01 to 15 nM. Besides, in experiment [1], the IC50 fell in the range of 0.01 to 15 nM.

As for `CN(c1cnc(-c2cc3cnn(C)c(=O)c3cc2O)nn1)C1CC2CCC(C)(N2)C1F` (stereo not drawn) [Compound 184], the EC50 in the experiment with SMN2 Protein was in the range of 0.01 to 15 nM. For the same molecule, the IC50 in experiment [1] was in the range of 0.01 to 15 nM.

In the experiment with SMN2 Protein, `CN(c1cnc(-c2cc3cnn(C)c(=O)c3cc2O)nn1)[C@H]1C[C@]2(C)CCC(N2)[C@H]1F` [Compound 185] showed an EC50 of 0.01 to 15 nM. For the same molecule, in experiment [1], the IC50 lay within 0.01 to 15 nM.

The molecule `CN(c1cnc(-c2cc3cnn(C)c(=O)c3cc2O)nn1)[C@@H]1C[C@@]2(C)CC[C@H](N2)[C@@H]1F` [Compound 186] displayed an EC50 with SMN2 Protein of 0.01 to 15 nM. Also, the IC50 in experiment [1] lay within 16 to 50 nM.

Turning to `CN(c1cnc(-c2cc3c(F)cn(C)c(=O)c3cc2O)nn1)[C@H]1C[C@@H]2CC[C@@](C)(N2)[C@H]1F` [Compound 187], the EC50 in the experiment with SMN2 Protein lay in the range of 0.01 to 15 nM. For the same molecule, the IC50 in experiment [1] was 0.01 to 15 nM.

As for `CN(c1cnc(-c2cc3c(F)cn(C)c(=O)c3cc2O)nn1)[C@@H]1CC2CC[C@](C)(N2)[C@@H]1F` [Compound 188], the EC50 with SMN2 Protein was in the range of 0.01 to 15 nM. This molecule returned an IC50 in experiment [1] of 0.01 to 15 nM.

Turning to `[2H]C([2H])([2H])n1nc(F)c2cc(-c3ncc(N(C)[C@H]4C[C@@H]5CCC(N5)[C@H]4F)nn3)c(O)cc2c1=O` [Compound 191], the EC50 in the experiment on SMN2 Protein lay within 0.01 to 15 nM. Also, in experiment [1], the IC50 lay within 0.01 to 15 nM.

For `[2H]C([2H])([2H])n1cc(F)c2cc(-c3ncc(N(C)[C@@H]4CC5CC[C@H](N5)[C@@H]4F)nn3)c(O)cc2c1=O` [Compound 192], the 50% effective concentration (EC50) in the experiment with SMN2 Protein lay in the range of 0.01 to 15 nM. The concentration for half-maximal inhibition (IC50) in experiment [1] lay in the range of 0.01 to 15 nM.

In the experiment with SMN2 Protein, `[2H]C([2H])([2H])N(c1cnc(-c2cc3c(F)cn(C([2H])([2H])[2H])c(=O)c3cc2O)nn1)[C@H]1C[C@@H]2CC[C@@H](N2)[C@H]1C` [Compound 193] gave a half-maximal effective concentration (EC50) of 0.01 to 15 nM. This molecule displayed an IC50 in experiment [1] of 0.01 to 15 nM.

In turn, `[2H]C([2H])([2H])N(c1cnc(-c2cc3c(F)cn(C([2H])([2H])[2H])c(=O)c3cc2O)nn1)[C@@H]1C[C@H]2CC[C@H](N2)[C@@H]1F` [Compound 194] yielded a concentration for a half-maximal effect (EC50) with SMN2 Protein of 0.01 to 15 nM. Moreover, the IC50 in experiment [1] was in the range of 0.01 to 15 nM.

Take `CN(c1cnc(-c2cc3ncn(C(F)F)c(=O)c3cc2O)nn1)[C@H]1CC2CC[C@@H](N2)[C@H]1F` [Compound 195]: the EC50 in the experiment with SMN2 Protein was 0.01 to 15 nM. This molecule returned an IC50 in experiment [1] of 0.01 to 15 nM.

`CN(c1cnc(-c2cc3ncn(C(F)F)c(=O)c3cc2O)nn1)[C@@H]1C[C@H]2CCC(N2)[C@@H]1F` [Compound 196] came in with an EC50 with SMN2 Protein of 51 to 100 nM. In experiment [1], this molecule had an IC50 of 16 to 50 nM.

Molecule `[2H]C([2H])([2H])N(c1cnc(-c2cc3c(F)cn(CC)c(=O)c3cc2O)nn1)[C@H]1C[C@@H]2CC[C@@H](N2)[C@H]1F` [Compound 201] gave an EC50 in the experiment on SMN2 Protein of 0.01 to 15 nM. For the same molecule, the IC50 in experiment [1] was in the range of 0.01 to 15 nM.

In the case of `[2H]C([2H])([2H])N(c1cnc(-c2cc3c(F)cn(CC)c(=O)c3cc2O)nn1)[C@@H]1C[C@H]2CC[C@H](N2)[C@@H]1F` [Compound 202], in the experiment on SMN2 Protein, the EC50 fell in the range of 0.01 to 15 nM. This molecule also gave a half-maximal inhibitory concentration (IC50) in experiment [1] of 51 to 100 nM.

`Cc1c(F)c2cc(-c3ncc(N(C)[C@H]4C[C@@H]5CC[C@@H](N5)[C@H]4F)nn3)c(O)cc2c(=O)n1C` [Compound 204] gave an EC50 in the experiment with SMN2 Protein of 0.01 to 15 nM. Further, the IC50 in experiment [1] lay in the range of 0.01 to 15 nM.

In the experiment on SMN2 Protein, `Cc1nc2cc(-c3ncc(N(C)[C@H]4CC5CC[C@@H](N5)[C@H]4F)nn3)c(O)cc2c(=O)n1C` [Compound 205] showed a concentration for a half-maximal effect (EC50) of 0.01 to 15 nM. The molecule further came in with an IC50 in experiment [1] of 0.01 to 15 nM.

With `Cc1cc2cc(-c3ncc(N(C)[C@H]4CC5CC[C@@H](N5)[C@H]4F)nn3)c(O)cc2c(=O)n1C` [Compound 206], the EC50 in the experiment on SMN2 Protein was 0.01 to 15 nM. Further, the IC50 in experiment [1] lay in the range of 0.01 to 15 nM.

On to `[2H]C([2H])([2H])C([2H])([2H])n1cc(F)c2cc(-c3ncc(N(C)[C@H]4CC5CCC(N5)[C@H]4F)nn3)c(O)cc2c1=O` (stereo partly drawn) [Compound 208], for which, in the experiment on SMN2 Protein, the EC50 is 0.01 to 15 nM. In experiment [1], this molecule showed an IC50 of 0.01 to 15 nM.

Molecule `CN(c1cnc(-c2cc3c(F)cn(C)c(=O)c3cc2O)nn1)[C@@H]1CC2CC(F)(F)C(C1)N2` (stereo partly drawn) [Compound 209] gave a concentration giving a half-maximal response (EC50) with SMN2 Protein of 101 to 500 nM. Also, the IC50 in experiment [1] fell in the range of 51 to 100 nM.

For `CN(c1cnc(-c2cc3c(F)cn(C)c(=O)c3cc2O)nn1)[C@H]1CC2CC(F)(F)C(C1)N2` (stereo partly drawn) [Compound 210], the EC50 in the experiment on SMN2 Protein was 0.01 to 15 nM. This molecule returned an IC50 in experiment [1] of 0.01 to 15 nM.

Regarding `CCn1cc(F)c2cc(-c3ncc(N(C)[C@@H]4CC5CC(F)(F)C(C4)N5)nn3)c(O)cc2c1=O` (stereo partly drawn) [Compound 211], in the experiment on SMN2 Protein, the EC50 lay within 501 to 10000 nM. Also, the IC50 in experiment [1] was 101 to 500 nM.

The molecule `CCn1cc(F)c2cc(-c3ncc(N(C)[C@H]4CC5CC(F)(F)C(C4)N5)nn3)c(O)cc2c1=O` (stereo partly drawn) [Compound 212] registered an EC50 with SMN2 Protein of 501 to 10000 nM. This molecule registered a concentration for half-maximal inhibition (IC50) in experiment [1] of 51 to 100 nM.

For `Cc1nc2cc(-c3ncc(N(C)[C@@H]4CC5CCC(N5)[C@@H]4F)nn3)c(O)cc2c(=O)n1C` (stereo partly drawn) [Compound 213], the half-maximal effective concentration (EC50) in the experiment on SMN2 Protein lay in the range of 0.01 to 15 nM. The molecule also gave an IC50 in experiment [1] of 16 to 50 nM.

Turning to `CCn1c(C)nc2cc(-c3ncc(N(C)[C@@H]4CC5CC(F)(F)C(C4)N5)nn3)c(O)cc2c1=O` (stereo partly drawn) [Compound 214], the EC50 in the experiment with SMN2 Protein lay in the range of 501 to 10000 nM. Also, the concentration for half-maximal inhibition (IC50) in experiment [1] fell in the range of 501 to 10000 nM.

As for `CCn1c(C)nc2cc(-c3ncc(N(C)[C@H]4CC5CC(F)(F)C(C4)N5)nn3)c(O)cc2c1=O` (stereo partly drawn) [Compound 215], in the experiment on SMN2 Protein, the EC50 is 16 to 50 nM. Moreover, in experiment [1], the IC50 was in the range of 16 to 50 nM.

`CCn1c(C)c(F)c2cc(-c3ncc(N(C)[C@H]4C[C@@H]5CCC(N5)[C@H]4F)nn3)c(O)cc2c1=O` [Compound 223] showed an EC50 with SMN2 Protein of 0.01 to 15 nM. Moreover, in experiment [1], the half-maximal inhibitory concentration (IC50) fell in the range of 0.01 to 15 nM.

For the origin of these results see patent US20230331718A1, “COMPOSITIONS FOR MODULATING SPLICING” (Skyhawk Therapeutics, Inc., priority 2020, published 2023).
